Assay: recombinant barcode read abundance after kanamycin selection (control-corrected) (log10(CPM+1)); higher = more efficient recombination; sequences stand for … in AGTGCAGAGAAAATCGGCCAGTTTTCTCTGCCTGCAGTCCGCATGCCGT…AGATTTATGCAGCGGACTGCCTTTCTCCCAAAGTGATAAACCGGACAGTATCATGGACCGGTTTTCCCGGTAATCCGTATTTGCAAGGTTGGTTTCACT; site = the 11-nt target
Procedure: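 Pooled E. coli target-specificity screen for the IS621 bridge recombinase. Each library plasmid pairs an 11-nt target (CT core) with a bridge RNA whose target-binding loop (9-nt LTG + 4-nt RTG) is reprogrammed; the rest of the 177-nt WT IS621 bridge RNA scaffold is fixed. The plasmid is co-electroporated with a WT donor plasmid; recombinase is induced with 0.1 mM IPTG and recombinants are selected on kanamycin. Recombinant barcodes are sequenced, converted to CPM, averaged over two biological replicates and corrected by the unselected control CPM. Molecule = full bridge RNA written as DNA: LTG = specificity nt 1-9, RTG = reverse complement of specificity nt 8-11, in the WT scaffold.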
For “ACTGGTACTTGGGTTCTAACCTGTTGCCT (site ACTGGTACTAG)”, the “recombinant barcode read abundance (log10)” value was 1.22. With “ACTGGTCCTTGGGTTCTAACCTGTTGCGG (site ACTGGTCCTCC)” the “recombinant barcode read abundance (log10)” value was 2.93. In the case of “ACTGGTCCTTGGGTTCTAACCTGTTGCGG (site GACATATCTAA)”, the “recombinant barcode read abundance (log10)” value is reported as 0.0953. For “ACTTAGACTTGGGTTCTAACCTGTTGCCA (site ACTTAGACTAG)”, the “recombinant barcode read abundance (log10)” value was 0.502. In the case of “ACTTAGACTTGGGTTCTAACCTGTTGCCA (site ACTTAGACTCG)”, the “recombinant barcode read abundance (log10)” value is reported as 0.408. For “ACTTAGACTTGGGTTCTAACCTGTTGCCA (site ACTTAGACTGG)”, the “recombinant barcode read abundance (log10)” value was 0.0414. For “ACTTAGACTTGGGTTCTAACCTGTTGCCA (site ACTTAGACTTG)”, the “recombinant barcode read abundance (log10)” value was 0.363. For “ACTTAGACTTGGGTTCTAACCTGTTGCCG (site ACTTAGACTAG)”, the “recombinant barcode read abundance (log10)” value was 0.287. In the case of “ACTTAGACTTGGGTTCTAACCTGTTGCCG (site ACTTAGACTCG)”, the “recombinant barcode read abundance (log10)” value is reported as 1.29. In the case of “ACTTAGACTTGGGTTCTAACCTGTTGCCG (site ACTTAGACTGG)”, the “recombinant barcode read abundance (log10)” value is reported as 0.159. With “ACTTAGACTTGGGTTCTAACCTGTTGCCG (site ACTTAGACTTG)” the “recombinant barcode read abundance (log10)” value was 0.129. For “ACTTAGTCTTGGGTTCTAACCTGTTGCTA (site ACATAGTCTCA)”, the “recombinant barcode read abundance (log10)” value was 0.178. In the case of “ACTTAGTCTTGGGTTCTAACCTGTTGCTA (site ACTTAGTCTTA)”, the “recombinant barcode read abundance (log10)” value is reported as 0.277. With “ACTTGAGCTTGGGTTCTAACCTGTTGCAG (site ACTTGAGCTCT)” the “recombinant barcode read abundance (log10)” value was 1.48. With “ACTTGAGCTTGGGTTCTAACCTGTTGCAG (site CACGCTCCTAC)” the “recombinant barcode read abundance (log10)” value was 0.167. With “ACTTGTACTTGGGTTCTAACCTGTTGCAT (site ACTTGGACTAT)” the “recombinant barcode read abundance (log10)” value was 0.0152. With “ACTTGTACTTGGGTTCTAACCTGTTGCAT (site ACTTGTACTAT)” the “recombinant barcode read abundance (log10)” value was 1.22. With “ACTTTACCTTGGGTTCTAACCTGTTGCCT (site ACTTTACCTAG)” the “recombinant barcode read abundance (log10)” value was 0.188. For “ACTTTACCTTGGGTTCTAACCTGTTGCCT (site CCTTTACCTAG)”, the “recombinant barcode read abundance (log10)” value was 0.324. For “ACTTTACCTTGGGTTCTAACCTGTTGCCT (site GCTTTACCTAG)”, the “recombinant barcode read abundance (log10)” value was 0.0495. With “ACTTTACCTTGGGTTCTAACCTGTTGCCT (site TCTTTACCTAG)” the “recombinant barcode read abundance (log10)” value was 0.186. With “AGAACACCTTGGGTTCTAACCTGTTGCTT (site AGAACACCTAA)” the “recombinant barcode read abundance (log10)” value was 0.525. For “AGAACACCTTGGGTTCTAACCTGTTGCTT (site GAGGAGTCTCG)”, the “recombinant barcode read abundance (log10)” value was 0.13. In the case of “AGAACTACTTGGGTTCTAACCTGTTGCCT (site AGAACTACTAG)”, the “recombinant barcode read abundance (log10)” value is reported as 0.384. For “AGAACTACTTGGGTTCTAACCTGTTGCCT (site AGGACTACTAG)”, the “recombinant barcode read abundance (log10)” value was 0.162. In the case of “AGAACTCCTTGGGTTCTAACCTGTTGCGA (site AGAACTCCTTC)”, the “recombinant barcode read abundance (log10)” value is reported as 1.03. In the case of “AGAACTCCTTGGGTTCTAACCTGTTGCGA (site CTGGAGACTAA)”, the “recombinant barcode read abundance (log10)” value is reported as 0.42. In the case of “AGAAGATCTTGGGTTCTAACCTGTTGCCT (site AGAAGATCTAG)”, the “recombinant barcode read abundance (log10)” value is reported as 0.706. With “AGAAGATCTTGGGTTCTAACCTGTTGCCT (site TACCTTACTCT)” the “recombinant barcode read abundance (log10)” value was 0.0563. In the case of “AGAAGTCCTTGGGTTCTAACCTGTTGCAG (site AGAAGTCCTCA)”, the “recombinant barcode read abundance (log10)” value is reported as 0.83. With “AGAAGTCCTTGGGTTCTAACCTGTTGCAG (site AGAAGTCCTCC)” the “recombinant barcode read abundance (log10)” value was 0.246. In the case of “AGAAGTCCTTGGGTTCTAACCTGTTGCAG (site AGAAGTCCTCG)”, the “recombinant barcode read abundance (log10)” value is reported as 0.366. In the case of “AGAAGTCCTTGGGTTCTAACCTGTTGCAG (site AGAAGTCCTCT)”, the “recombinant barcode read abundance (log10)” value is reported as 1.56. In the case of “AGAATCCCTTGGGTTCTAACCTGTTGCAT (site AGAATCCCTAT)”, the “recombinant barcode read abundance (log10)” value is reported as 1.49. For “AGAATCCCTTGGGTTCTAACCTGTTGCAT (site ATAAACCCTAT)”, the “recombinant barcode read abundance (log10)” value was 0.0539. In the case of “AGACAGTCTTGGGTTCTAACCTGTTGCCA (site AGACAGTCTTG)”, the “recombinant barcode read abundance (log10)” value is reported as 0.311. For “AGACAGTCTTGGGTTCTAACCTGTTGCCA (site GACTGAGCTCC)”, the “recombinant barcode read abundance (log10)” value was 0.0895. In the case of “AGACGTACTTGGGTTCTAACCTGTTGCCT (site AGACGTACTAG)”, the “recombinant barcode read abundance (log10)” value is reported as 1.65. With “AGACGTACTTGGGTTCTAACCTGTTGCCT (site AGCCGTACTAG)” the “recombinant barcode read abundance (log10)” value was 0.102. In the case of “AGACGTACTTGGGTTCTAACCTGTTGCCT (site AGGCGTACTAG)”, the “recombinant barcode read abundance (log10)” value is reported as 0.128. With “AGACGTACTTGGGTTCTAACCTGTTGCCT (site AGTCGTACTAG)” the “recombinant barcode read abundance (log10)” value was 0.0904. For “AGACGTCCTTGGGTTCTAACCTGTTGCTT (site AGACATCCTAA)”, the “recombinant barcode read abundance (log10)” value was 0.197. For “AGACGTCCTTGGGTTCTAACCTGTTGCTT (site AGACCTCCTAA)”, the “recombinant barcode read abundance (log10)” value was 0.162. In the case of “AGACGTCCTTGGGTTCTAACCTGTTGCTT (site AGACGTCCTAA)”, the “recombinant barcode read abundance (log10)” value is reported as 1.03. With “AGACGTCCTTGGGTTCTAACCTGTTGCTT (site AGACTTCCTAA)” the “recombinant barcode read abundance (log10)” value was 0.15. In the case of “AGAGCTCCTTGGGTTCTAACCTGTTGCGG (site AGAGCTCCTCC)”, the “recombinant barcode read abundance (log10)” value is reported as 1.28. For “AGAGCTCCTTGGGTTCTAACCTGTTGCGG (site AGTGCTCCTCC)”, the “recombinant barcode read abundance (log10)” value was 0.196. With “AGAGGACCTTGGGTTCTAACCTGTTGCCT (site AGAGGACCTAG)” the “recombinant barcode read abundance (log10)” value was 2.32. With “AGAGGACCTTGGGTTCTAACCTGTTGCCT (site TGAGCACCTAG)” the “recombinant barcode read abundance (log10)” value was 0.213. With “AGAGGTTCTTGGGTTCTAACCTGTTGCCT (site AAAGGTTCTAG)” the “recombinant barcode read abundance (log10)” value was 0.141. With “AGAGGTTCTTGGGTTCTAACCTGTTGCCT (site ACAGGTTCTAG)” the “recombinant barcode read abundance (log10)” value was 0.0172. In the case of “AGAGGTTCTTGGGTTCTAACCTGTTGCCT (site AGAGGTTCTAG)”, the “recombinant barcode read abundance (log10)” value is reported as 1.58. For “AGAGGTTCTTGGGTTCTAACCTGTTGCCT (site ATAGGTTCTAG)”, the “recombinant barcode read abundance (log10)” value was 0.271. In the case of “AGAGTAACTTGGGTTCTAACCTGTTGCAC (site AGAGTAACTGT)”, the “recombinant barcode read abundance (log10)” value is reported as 2.19. For “AGAGTAACTTGGGTTCTAACCTGTTGCAC (site TCTCGTTCTTA)”, the “recombinant barcode read abundance (log10)” value was 0.063. In the case of “AGAGTCCCTTGGGTTCTAACCTGTTGCGG (site AGAGTCCCTCC)”, the “recombinant barcode read abundance (log10)” value is reported as 3.09. With “AGAGTCCCTTGGGTTCTAACCTGTTGCGG (site AGAGTCTCTCA)” the “recombinant barcode read abundance (log10)” value was 0.295. For “AGAGTCTCTTGGGTTCTAACCTGTTGCTG (site AGAGTCCCTCC)”, the “recombinant barcode read abundance (log10)” value was 0.101. In the case of “AGAGTCTCTTGGGTTCTAACCTGTTGCTG (site AGAGTCTCTCA)”, the “recombinant barcode read abundance (log10)” value is reported as 0.78. In the case of “AGATACTCTTGGGTTCTAACCTGTTGCCT (site ACATAGTCTAG)”, the “recombinant barcode read abundance (log10)” value is reported as 0.428. For “AGATACTCTTGGGTTCTAACCTGTTGCCT (site AGATACTCTAG)”, the “recombinant barcode read abundance (log10)” value was 2.66. In the case of “AGATATACTTGGGTTCTAACCTGTTGCTT (site AGATATACTAA)”, the “recombinant barcode read abundance (log10)” value is reported as 0.167. For “AGATATACTTGGGTTCTAACCTGTTGCTT (site CACCTGTCTCC)”, the “recombinant barcode read abundance (log10)” value was 0.0796. With “AGATCTCCTTGGGTTCTAACCTGTTGCGT (site AGATCTCCTAC)” the “recombinant barcode read abundance (log10)” value was 0.777. With “AGATCTCCTTGGGTTCTAACCTGTTGCGT (site TCGAAGTCTTA)” the “recombinant barcode read abundance (log10)” value was 0.0154. For “AGATGAGCTTGGGTTCTAACCTGTTGCGG (site AAATGGGCTCC)”, the “recombinant barcode read abundance (log10)” value was 0.0978. With “AGATGAGCTTGGGTTCTAACCTGTTGCGG (site AGATGAGCTCC)” the “recombinant barcode read abundance (log10)” value was 1.51. For “AGATGTGCTTGGGTTCTAACCTGTTGCCT (site AGATGTGCTAG)”, the “recombinant barcode read abundance (log10)” value was 1.49. In the case of “AGATGTGCTTGGGTTCTAACCTGTTGCCT (site CACAAACCTCT)”, the “recombinant barcode read abundance (log10)” value is reported as 0.181. For “AGATTATCTTGGGTTCTAACCTGTTGCCT (site AGAATATCTAG)”, the “recombinant barcode read abundance (log10)” value was 0.21. With “AGATTATCTTGGGTTCTAACCTGTTGCCT (site AGATTATCTAG)” the “recombinant barcode read abundance (log10)” value was 1.32. For “AGCAGCACTTGGGTTCTAACCTGTTGCCT (site AGCAGCACTAG)”, the “recombinant barcode read abundance (log10)” value was 0.731. With “AGCAGCACTTGGGTTCTAACCTGTTGCCT (site CGCAGCACTAG)” the “recombinant barcode read abundance (log10)” value was 0.298.

Source: the supplement of paper PMC11208160
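Note: IS621 recombinase and bridge RNA in Escherichia coli cells.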
